Data published in article PMC6382696, “Drug Repurposing: The Anthelmintics Niclosamide and Nitazoxanide Are Potent TMEM16A Antagonists That Fully Bronchodilate Airways” (Frontiers in Pharmacology, 2019).
pIC50: −log10 of the molar value. “Also recorded” adds a separate entry of the source.

Legend:
COLO205 cells = assay: QPatch electrophysiology of endogenous calcium-activated chloride current in COLO205 cells; assay type: cell-based, human; conditions: 170 nM free calcium
Source text: HEK293 cells stably expressing the TMEM16A (acd) variant were purchased from SB Drug Discovery. The HEK293 TMEM16A (abc) stable cell line was from ChanTest and COLO-205 cells were purchased from ATCC. The same standard buffers and recording conditions listed below were used for QPatch studies on all three cell lines.
Recording Solutions: were made weekly as below and stored at room temperature until used. It is recommended not to add ATP to internal solution until immediately before using on the QPatch. The external buffer (in mM) was 140 NaCl, 4 KCl, 2 CaCl2, 1 MgCl2, 10 HEPES, 10 Glucose, pH7.4, while the internal buffer (in mM) was 110 CsCl, 20 TEA-Cl, 5.374 CaCl2, 1.75 MgCl2, 10 EGTA, 10 HEPES, 4 Na2ATP, pH 7.2.
Once established in whole-cell configuration, cells were clamped to a holding potential (Vhold) of 0 mV on 48 well single hole patch plate. A standardized IV protocol was used to elicit ionic current through the TMEM16A chloride channel at 20 s intervals. Steady-state voltage pulses were from −100 mV to +100 mV in +20 mV steps for a duration of 500 ms. After each pulse the voltage was returned to −100 mV for 50 ms to obtain tail currents, and then returned to the holding potential of 0 mV until the beginning of the next sweep. Block of TMEM16A chloride current due to test article was measured at the +100 mV depolarization sweep of the third and final IV protocol run per concentration addition. This ensures a minimum of 60 s per concentration incubation before measuring current block. Currents were acquired at 10 kHz and filtered at 2 kHz, leak subtraction and Rseries were disabled. […]
A cumulative concentration response was measured where each cell is exposed to five concentrations of test article with a dilution factor of 1:5 (e.g., 0.048, 0.24, 1.2, 6, and 30 μM). Cells were recorded for ∼60 s per solution/compound addition. […] Recovery/washout was monitored for a final minute with a final external solution addition.
Peak outward current magnitude at 540 ms through 550 ms of the IV step was measured for each sweep at […]. […]

mouse tracheal rings = assay: Bronchodilation of cytokine-treated mouse tracheal rings; conditions: overnight IL-1β, TNFα, IL-13 100 ng/ml, EC75 carbachol
Protocol: Airway rings were treated overnight in 2 ml DMEM + PSG/HEPES/AA/NaPyr buffer alone or with the same solution supplemented with 100 ng/ml of mTNFα, mIL-13 and mIL-1β. Unlike like the typical Wake-Up protocol and ring qualifying tests, mouse tracheal rings were not exposed to KPSS and rings were not observed to relax with a β-agonist following discovery of CCh dose-responses. After several washes with PSS, EC75 concentrations of CCh were used to pre-contract rings for >30 min alone or in the presence of cytokines.

mouse airway rings = assay: Duration of bronchodilation after washout and carbachol re-challenge, mouse airway rings; conditions: EC75 carbachol, preliminary
Protocol: Mouse airway rings were exposed to a typical Wake-Up procedure including the use of KPSS and discovery of EC75 CCh dose responses. However, no isoproterenol was used to observe tissue relaxation as part of the qualification procedure. With pre-contraction with EC75 CCh for >30 min, rings were subjected to a compound dose-response, followed by a complete washout of compound, and re-contracted with EC75 CCh. Traces were recorded for several hours thereafter and normalized to theophylline as control of 100% relaxation.

[1] = test system: Wnt/β-catenin transcription; assay: Wnt/β-catenin transcription TOPFlash reporter assay; assay type: cell-based; conditions: Wnt TopFlash IC50 over TMEM16A eYFP IC50
HCT116 = test system: HCT116; set-up: method as in Li et al., 2014; conditions: ref Li et al., 2014, read-out: IC50 inhibition of proliferation; cited from earlier work
COLO205 = test system: COLO205; set-up: method as in Li et al., 2014; conditions: ref Li et al., 2014, read-out: IC50 inhibition of proliferation; cited from earlier work

Structure (SMILES) | block of native chloride current in COLO205 cells (COLO205 cells) | bronchodilation of cytokine-treated airways (mouse tracheal rings) | duration of bronchodilation after washout and re-challenge (mouse airway rings) | IC50 Ratio, Wnt/TMEM16A [1] | pIC50 (HCT116) | pIC50 (COLO205)
N#Cc1c(C(F)(F)F)cc(O)n2c1nc1ccccc12 [1PBC] | fully blocked | – | – | – | – | –
CCc1oc2ccccc2c1C(=O)c1cc(Br)c(O)c(Br)c1 [Benzbromarone] | fully blocked | fully bronchodilated | long lasting; also recorded: sustained bronchodilation lasting several hours | – | – | –
CC(C)(C)C1CCc2c(sc(NC(=O)c3ccco3)c2C(=O)O)C1 (centres unmarked) [CaCCinh-A01] | fully blocked | – | – | – | – | –
O=C(Nc1ccc(Cl)cc1)c1cc(Cl)ccc1O [Cpd 5] | – | – | – | 3.51 | – | –
O=C(Nc1ccc([N+](=O)[O-])cc1Cl)c1cc(Cl)ccc1O [Niclosamide] | – | fully bronchodilated | long lasting; also recorded: sustained bronchodilation lasting several hours | 2.62 | 6.43 | 6.01
